Measurements: patent US20060235076A1, “Medicinal composition for treating infection with drug-resistant staphylococcus aureus” (priority 2003, published 2006)
In brackets after ≈: the same amount, converted by molar mass. Read-outs that look alike come from different tables or passages of the source.

Tested on: MRSA and MSSA
Assay: Antibacterial activity of gallic acid, various gallates and multivalent phenol derivatives alone (agar plate dilution method, MIC)
Type: cell-based, Staphylococcus aureus
Settings: Staphylococcus aureus
Description: According to the agar plate dilution method defined by Japan Society of Chemotherapy, MIC (Minimum inhibitory concentration) was determined. CAMHA was prepared by adding 50 mg/l of Ca-ion, 25 mg/l of Mg-ion, and 2% of NaCl to Mueller-Hinton II Agar (MHA), and it was used as a medium for use in the measurement of sensitivity. The bacterial liquid was incubated at 37° C. overnight and diluted to 10^6 CFU/ml with saline.
MIC for gallic acid, various gallates and multivalent phenol derivatives alone with MRSA and MSSA were determined as described in experiment 2.

[1] = COL, compound alone, read-out: MIC
[2] = MRSA #1, compound alone, read-out: MIC
[3] = MRSA #2, compound alone, read-out: MIC
[4] = MRSA #3, compound alone, read-out: MIC
[5] = MRSA #4, compound alone, read-out: MIC
[6] = MRSA #5, compound alone, read-out: MIC
[7] = MRSA #6, compound alone, read-out: MIC
[8] = MRSA #7, compound alone, read-out: MIC
[9] = MRSA #8, compound alone, read-out: MIC
[10] = MRSA #9, compound alone, read-out: MIC
[11] = MRSA #10, compound alone, read-out: MIC
[12] = MRSA #12, compound alone, read-out: MIC
[13] = MRSA #16, compound alone, read-out: MIC
[14] = MRSA #17, compound alone, read-out: MIC
[15] = MRSA #18, compound alone, read-out: MIC
[16] = MRSA #20, compound alone, read-out: MIC
[17] = MRSA #21, compound alone, read-out: MIC
[18] = MRSA #22, compound alone, read-out: MIC
[19] = MRSA #24, compound alone, read-out: MIC
[20] = MSSA #1003, compound alone, read-out: MIC
[21] = MSSA #1010, compound alone, read-out: MIC
[22] = MSSA #1020, compound alone, read-out: MIC
[23] = MSSA #1023, compound alone, read-out: MIC
[24] = MSSA #1029, compound alone, read-out: MIC
[25] = MSSA #1032, compound alone, read-out: MIC

Q: Which results are given for CC(C)CCOC(=O)c1ccc(O)cc1 [Isoamyl 4-hydroxybenzoate]?
A: MIC50: 62.5 µg/mL (≈ 300 µM); MIC (ATCC 6538 / MRSA / MSSA): 62.5 µg/mL (≈ 300 µM); MIC [1]: 62.5 µg/mL (≈ 300 µM); MIC [2]: 62.5 µg/mL (≈ 300 µM); MIC [3]: 62.5 µg/mL (≈ 300 µM); MIC [4]: 62.5 µg/mL (≈ 300 µM); MIC [5]: 62.5 µg/mL (≈ 300 µM); MIC [6]: 62.5 µg/mL (≈ 300 µM); MIC [7]: 62.5 µg/mL (≈ 300 µM); MIC [8]: 62.5 µg/mL (≈ 300 µM); MIC [9]: 62.5 µg/mL (≈ 300 µM); MIC [10]: 62.5 µg/mL (≈ 300 µM); MIC [11]: 31.3 µg/mL (≈ 150 µM); MIC [12]: 62.5 µg/mL (≈ 300 µM); MIC [13]: 62.5 µg/mL (≈ 300 µM); MIC [14]: 62.5 µg/mL (≈ 300 µM); MIC [15]: 62.5 µg/mL (≈ 300 µM); MIC [16]: 62.5 µg/mL (≈ 300 µM); MIC [17]: 62.5 µg/mL (≈ 300 µM); MIC [18]: 62.5 µg/mL (≈ 300 µM); MIC [19]: 62.5 µg/mL (≈ 300 µM); MIC [20]: 62.5 µg/mL (≈ 300 µM); MIC [21]: 62.5 µg/mL (≈ 300 µM); MIC [22]: 62.5 µg/mL (≈ 300 µM); MIC [23]: 62.5 µg/mL (≈ 300 µM); MIC [24]: 62.5 µg/mL (≈ 300 µM); MIC [25]: 62.5 µg/mL (≈ 300 µM)

Q: For O=C(O)c1cc(O)c(O)c(O)c1 [Gallic acid, gallic acid, reference compound], which MIC (ATCC 6538 / MRSA / MSSA, ATCC6538, read-out: MIC alone) is on record?
A: 62.5 µg/mL (≈ 367 µM)

Q: And the MIC (COL, read-out: MIC alone)?
A: 62.5 µg/mL (≈ 367 µM)

Q: And the MIC (MRSA #1, read-out: MIC alone)?
A: 31.3 µg/mL (≈ 184 µM)

Q: What about the MIC (MRSA #2, read-out: MIC alone) of the same compound?
A: 62.5 µg/mL (≈ 367 µM)

Q: And the MIC (MRSA #3, read-out: MIC alone)?
A: 31.3 µg/mL (≈ 184 µM)

Q: What about the MIC (MRSA #4, read-out: MIC alone) of the same compound?
A: 62.5 µg/mL (≈ 367 µM)

Q: And the MIC (MRSA #5, read-out: MIC alone)?
A: 31.3 µg/mL (≈ 184 µM)

Q: And the MIC (MRSA #6, read-out: MIC alone)?
A: 31.3 µg/mL (≈ 184 µM)

Q: And the MIC (MRSA #7, read-out: MIC alone)?
A: 62.5 µg/mL (≈ 367 µM)

Q: What about the MIC (MRSA #8, read-out: MIC alone) of the same compound?
A: 31.3 µg/mL (≈ 184 µM)

Q: And the MIC (MRSA #9, read-out: MIC alone)?
A: 31.3 µg/mL (≈ 184 µM)

Q: What about the MIC (MRSA #10, read-out: MIC alone) of the same compound?
A: 31.3 µg/mL (≈ 184 µM)

Q: And the MIC (MRSA #12, read-out: MIC alone)?
A: 62.5 µg/mL (≈ 367 µM)

Q: And the MIC (MRSA #16, read-out: MIC alone)?
A: 31.3 µg/mL (≈ 184 µM)

Q: And the MIC (MRSA #17, read-out: MIC alone)?
A: 62.5 µg/mL (≈ 367 µM)

Q: And the MIC (MRSA #18, read-out: MIC alone)?
A: 62.5 µg/mL (≈ 367 µM)

Q: And the MIC (MRSA #20, read-out: MIC alone)?
A: 62.5 µg/mL (≈ 367 µM)

Q: What about the MIC (MRSA #21, read-out: MIC alone) of the same compound?
A: 62.5 µg/mL (≈ 367 µM)

Q: What about the MIC (MRSA #22, read-out: MIC alone) of the same compound?
A: 62.5 µg/mL (≈ 367 µM)

Q: And the MIC (MRSA #24, read-out: MIC alone)?
A: 62.5 µg/mL (≈ 367 µM)

Q: And the MIC (MSSA #1003, read-out: MIC alone)?
A: 62.5 µg/mL (≈ 367 µM)

Q: And the MIC (MSSA #1010, read-out: MIC alone)?
A: 62.5 µg/mL (≈ 367 µM)

Q: What about the MIC (MSSA #1020, read-out: MIC alone) of the same compound?
A: 62.5 µg/mL (≈ 367 µM)

Q: What about the MIC (MSSA #1023, read-out: MIC alone) of the same compound?
A: 31.3 µg/mL (≈ 184 µM)

Q: What about the MIC (MSSA #1029, read-out: MIC alone) of the same compound?
A: 31.3 µg/mL (≈ 184 µM)

Q: And the MIC (MSSA #1032, read-out: MIC alone)?
A: 31.3 µg/mL (≈ 184 µM)

Q: And the MIC50 (compound alone, over all strains of Table 3-1, read-out: MIC50)?
A: 62.5 µg/mL (≈ 367 µM)

Q: For CCCCCCCCCCCCCCCCOC(=O)c1cc(O)c(O)c(O)c1 [Cetyl gallate], which MIC (ATCC 6538 / MRSA / MSSA, ATCC6538, compound alone, read-out: MIC) is on record?
A: > 250 µg/mL

Q: And the MIC [1]?
A: 250 µg/mL (≈ 634 µM)

Q: And the MIC [2]?
A: > 250 µg/mL

Q: And the MIC [3]?
A: 250 µg/mL (≈ 634 µM)

Q: And the MIC [4]?
A: > 250 µg/mL

Q: And the MIC [5]?
A: > 250 µg/mL

Q: What about the MIC [6] of the same compound?
A: > 250 µg/mL

Q: And the MIC [7]?
A: 125 µg/mL (≈ 317 µM)

Q: And the MIC [8]?
A: > 250 µg/mL

Q: What about the MIC [9] of the same compound?
A: > 250 µg/mL

Q: And the MIC [10]?
A: > 250 µg/mL

Q: And the MIC [11]?
A: 125 µg/mL (≈ 317 µM)

Q: And the MIC [12]?
A: > 250 µg/mL

Q: And the MIC [13]?
A: > 250 µg/mL

Q: What about the MIC [14] of the same compound?
A: > 250 µg/mL

Q: What about the MIC [15] of the same compound?
A: > 250 µg/mL

Q: What about the MIC [16] of the same compound?
A: > 250 µg/mL

Q: What about the MIC [17] of the same compound?
A: > 250 µg/mL

Q: What about the MIC [18] of the same compound?
A: > 250 µg/mL

Q: And the MIC [19]?
A: > 250 µg/mL

Q: What about the MIC [20] of the same compound?
A: > 250 µg/mL

Q: What about the MIC [21] of the same compound?
A: > 250 µg/mL

Q: And the MIC [22]?
A: > 250 µg/mL

Q: And the MIC [23]?
A: > 250 µg/mL

Q: What about the MIC [24] of the same compound?
A: 250 µg/mL (≈ 634 µM)

Q: And the MIC [25]?
A: 250 µg/mL (≈ 634 µM)

Q: And the MIC50 (over all strains of Table 3-2, compound alone, read-out: MIC50)?
A: > 250 µg/mL

Q: How did the MIC50 turn out when CCCCCOC(=O)c1ccc(O)cc1 [n-Amyl 4-hydroxybenzoate] was run?
A: 62.5 µg/mL (≈ 300 µM)

Q: And the MIC (ATCC 6538 / MRSA / MSSA)?
A: 62.5 µg/mL (≈ 300 µM)

Q: What about the MIC [1] of the same compound?
A: 62.5 µg/mL (≈ 300 µM)

Q: What about the MIC [2] of the same compound?
A: 62.5 µg/mL (≈ 300 µM)

Q: And the MIC [3]?
A: 62.5 µg/mL (≈ 300 µM)

Q: And the MIC [4]?
A: 62.5 µg/mL (≈ 300 µM)

Q: What about the MIC [5] of the same compound?
A: 62.5 µg/mL (≈ 300 µM)

Q: And the MIC [6]?
A: 62.5 µg/mL (≈ 300 µM)

Q: What about the MIC [7] of the same compound?
A: 31.3 µg/mL (≈ 150 µM)

Q: What about the MIC [8] of the same compound?
A: 62.5 µg/mL (≈ 300 µM)

Q: What about the MIC [9] of the same compound?
A: 31.3 µg/mL (≈ 150 µM)

Q: And the MIC [10]?
A: 31.3 µg/mL (≈ 150 µM)

Q: And the MIC [11]?
A: 62.5 µg/mL (≈ 300 µM)

Q: And the MIC [12]?
A: 62.5 µg/mL (≈ 300 µM)

Q: What about the MIC [13] of the same compound?
A: 62.5 µg/mL (≈ 300 µM)

Q: And the MIC [14]?
A: 62.5 µg/mL (≈ 300 µM)

Q: What about the MIC [15] of the same compound?
A: 62.5 µg/mL (≈ 300 µM)

Q: And the MIC [16]?
A: 62.5 µg/mL (≈ 300 µM)

Q: And the MIC [17]?
A: 62.5 µg/mL (≈ 300 µM)

Q: And the MIC [18]?
A: 62.5 µg/mL (≈ 300 µM)

Q: What about the MIC [19] of the same compound?
A: 62.5 µg/mL (≈ 300 µM)

Q: And the MIC [20]?
A: 62.5 µg/mL (≈ 300 µM)

Q: What about the MIC [21] of the same compound?
A: 62.5 µg/mL (≈ 300 µM)

Q: What about the MIC [22] of the same compound?
A: 62.5 µg/mL (≈ 300 µM)

Q: And the MIC [23]?
A: 31.3 µg/mL (≈ 150 µM)

Q: What about the MIC [24] of the same compound?
A: 62.5 µg/mL (≈ 300 µM)

Q: And the MIC [25]?
A: 62.5 µg/mL (≈ 300 µM)
